Results from ChEMBL document CHEMBL1201862, “PubChem BioAssay data set” (2004).
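Test compounds were applied to cells in 96-well plates for 48 hours at 5 doses. GI50 marks 50% less growth.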 Calls of active or inactive are those of the source. Rule as the data show it: active = GI50 up to about 1.1 µM and inactive = higher.

Experiments:
Test in all cases: growth of human tumour cells (NCI), 48 h
[1] = test system: A549
[2] = test system: ACHN
[3] = test system: HCT-15
[4] = test system: KM12
[5] = test system: MCF7
[6] = test system: MDA-N
[7] = test system: Malme-3M
[8] = test system: NCI-H226
[9] = test system: NCI-H23
[10] = test system: NCI/ADR-RES
[11] = test system: OVCAR-4
[12] = test system: OVCAR-8
[13] = test system: PC-3
[14] = test system: SF-295
[15] = test system: SNB-75
[16] = test system: SW-620
[17] = test system: TK-10
[18] = test system: UACC-257
[19] = test system: UACC-62
[20] = test system: UO-31

Row | SMILES | GI50 [1] | GI50 [2] | GI50 [3] [µM] | GI50 [4] | GI50 [5] | GI50 [6] | GI50 [7] | GI50 [8] | GI50 [9] | GI50 [10] | GI50 [11] | GI50 [12] | GI50 [13] | GI50 [14] | GI50 [15] | GI50 [16] | GI50 [17] | GI50 [18] | GI50 [19] | GI50 [20]
1 | N#CC(c1ccccc1)N1CCCN(C(C#N)c2ccccc2)C1c1ccccc1O (centres undefined) | > 100 µM (inactive) | > 100 µM (inactive) | > 100 | > 100 µM (inactive) | > 100 µM (inactive) | > 100 µM (inactive) | > 100 µM (inactive) | > 100 µM (inactive) | > 100 µM (inactive) | > 100 µM (inactive) | > 100 µM (inactive) | > 100 µM (inactive) | > 100 µM (inactive) | > 100 µM (inactive) | > 100 µM (inactive) | > 100 µM (inactive) | > 100 µM (inactive) | > 100 µM (inactive) | > 100 µM (inactive) | > 100 µM (inactive)
2 | O=c1c(C(c2ccc(OCc3ccccc3)cc2)c2c(O)oc3ccccc3c2=O)c(O)oc2ccccc12 | 40.9 µM (inactive) | 23.4 µM (inactive) | 41.7 | 29.6 µM (inactive) | 48.4 µM (inactive) | 24.7 µM (inactive) | 28.6 µM (inactive) | 30.7 µM (inactive) | 35.7 µM (inactive) | 34.2 µM (inactive) | 46.1 µM (inactive) | 33.4 µM (inactive) | 39.7 µM (inactive) | 61.2 µM (inactive) | 18.6 µM (inactive) | 57.4 µM (inactive) | 62.1 µM (inactive) | 78.9 µM (inactive) | 37.5 µM (inactive) | 19 µM (inactive)
3 | Clc1ccc(C2C3COc4ccccc4C3=NN2c2ccccc2)cc1 (centres undefined) | > 100 µM (inactive) | > 100 µM (inactive) | 17.9 | 20.7 µM (inactive) | 3.84 µM (inactive) | 22.8 µM (inactive) | > 100 µM (inactive) | 30 µM (inactive) | > 91.6 µM (inactive) | 29.7 µM (inactive) | > 100 µM (inactive) | > 69.5 µM (inactive) | > 67.1 µM (inactive) | > 100 µM (inactive) | > 70.3 µM (inactive) | 5.05 µM (inactive) | > 100 µM (inactive) | > 100 µM (inactive) | 64.7 µM (inactive) | > 100 µM (inactive)
4 | Oc1ccc2ccccc2c1NCn1nc(CCCCCCCCc2nn(CNc3c(O)ccc4ccccc34)c(=S)o2)oc1=S | > 100 µM (inactive) | > 100 µM (inactive) | 43.1 | 28.9 µM (inactive) | > 100 µM (inactive) | 37.6 µM (inactive) | > 100 µM (inactive) | > 100 µM (inactive) | > 100 µM (inactive) | > 100 µM (inactive) | > 100 µM (inactive) | – | > 100 µM (inactive) | > 100 µM (inactive) | > 100 µM (inactive) | > 100 µM (inactive) | > 100 µM (inactive) | > 100 µM (inactive) | > 100 µM (inactive) | > 100 µM (inactive)
5 | O=C(CCNC(=O)OCc1ccccc1)OCCCNC(=O)OCc1ccccc1 | > 100 µM (inactive) | > 100 µM (inactive) | > 100 | > 100 µM (inactive) | > 100 µM (inactive) | > 100 µM (inactive) | > 100 µM (inactive) | > 100 µM (inactive) | > 100 µM (inactive) | > 100 µM (inactive) | > 100 µM (inactive) | > 100 µM (inactive) | > 100 µM (inactive) | > 100 µM (inactive) | 50.8 µM (inactive) | > 100 µM (inactive) | > 100 µM (inactive) | > 100 µM (inactive) | > 100 µM (inactive) | > 100 µM (inactive)
6 | Cn1c(N=P(c2ccccc2)(c2ccccc2)c2ccccc2)c([N+](=O)[O-])c(=O)n(C)c1=O | 40.6 µM (inactive) | 55.7 µM (inactive) | 51.9 | 25.6 µM (inactive) | 42.3 µM (inactive) | 34.1 µM (inactive) | > 100 µM (inactive) | > 100 µM (inactive) | 99.1 µM (inactive) | 89.9 µM (inactive) | 41.1 µM (inactive) | 0.991 µM (active) | 24.7 µM (inactive) | 53 µM (inactive) | 25.5 µM (inactive) | 41.4 µM (inactive) | 67.9 µM (inactive) | 73.1 µM (inactive) | 59.2 µM (inactive) | 71 µM (inactive)
7 | COc1ccccc1C(=O)c1c(N2CCCCC2)c(=O)c1=O | > 100 µM (inactive) | > 100 µM (inactive) | > 100 | 78.7 µM (inactive) | > 100 µM (inactive) | > 100 µM (inactive) | > 100 µM (inactive) | > 100 µM (inactive) | > 100 µM (inactive) | > 100 µM (inactive) | > 100 µM (inactive) | > 100 µM (inactive) | > 100 µM (inactive) | > 100 µM (inactive) | > 100 µM (inactive) | > 100 µM (inactive) | > 100 µM (inactive) | > 100 µM (inactive) | > 100 µM (inactive) | > 100 µM (inactive)
